This is an account of results in ChEMBL document CHEMBL1156027, “Identification of methysticin as a potent and non-toxic NF-kappaB inhibitor from kava, potentially responsible for kava's chemopreventive activity” (Bioorg Med Chem Lett, 2009).

What is called IC50 is the concentration that inhibits the measured activity by half. Low values mean greater potency, high ones weaker potency.

Values after ≈ are worked out from the molar mass of the structure shown. Active and inactive are the calls of the source. The calls are words filed in the database; no cut-off is given here.

Data set [1] can be described thus: Hepatotoxicity against mouse Hepa-1c1c7 cells after 48 hrs by celltiter blue assay. It is filed as toxicity, cell-based.
The nature of data set [2]: Inhibition of TNF-alpha-induced NF-kappaB expressed in human A549 cells treated 1 hr after TNFalpha challenge measured after 6 hrs by luciferase reporter gene assay. It is filed as cell-based. In general terms: A reporter such as luciferase makes a cellular process visible.
Data set [3] has as its system A549. Briefly: […] against human A549 cells after 48 hrs by celltiter blue assay. Particulars: a549, 48 h. The class given is toxicity, cell-based. For orientation: Resazurin is reduced to fluorescent resorufin, in cell work by metabolically active cells.
Data set [4] deals with A549. Briefly: Inhibition of NF-kappaB expressed in human A549 cells assessed as suppression of TNF-alpha-induced IKKalpha level at 25 uM after 7 hrs by Western blotting. The class given is cell-based. (In general: A western blot detects proteins with antibodies after separation by electrophoresis.)
Data set [5] has as its system CCRF-CEM. Briefly: Toxicity against human CCRF-CEM cells after 48 hrs by celltiter blue assay. It is filed as cell-based.
For data set [6], the system named is A549. Briefly: Inhibition of NF-kappaB expressed in human A549 cells assessed as suppression of TNF-alpha-induced p65 level at 25 uM after 7 hrs by Western blotting. The class given is cell-based.
Data set [7] concerns A549. Kind of data set: Inhibition of NF-kappaB expressed in human A549 cells assessed as prevention of TNF-alpha-induced IkappaBalpha degradation level at 25 uM after 7 hrs by Western blotting. It is filed as cell-based.
Data set [8] has as its system A549. Kind of data set: Inhibition of NF-kappaB expressed in human A549 cells assessed as suppression of TNF-alpha-induced COX2 level at 25 uM after 7 hrs by Western blotting. It is filed as cell-based.
Data set [9] relates to HL-60. Briefly: Toxicity against human HL60 cells after 48 hrs by celltiter blue assay. It is filed as cell-based. Particulars: hl-60, 48 h.

With `COC1=CC(=O)O[C@@H](/C=C/c2ccccc2)C1` [KAVAIN], in data set [1], half-maximal inhibition (IC50 at 48 h) required 166 µg/mL (≈ 721 µM). For the same molecule, inhibition in data set [2] was half-maximal at 32 µg/mL (≈ 139 µM) (IC50).
As to `COC1=CC(=O)O[C@@H](CCc2ccc3c(c2)OCO3)C1` [DIHYDROMETHYSTICIN], in data set [1], 313 µg/mL (≈ 1130 µM) corresponded to half-maximal inhibition (IC50 at 48 h). In data set [2], this molecule returned an IC50 of 20 µg/mL (≈ 72.4 µM).
Molecule `COc1cc(O)c(C(=O)/C=C/c2ccc(O)cc2)c(OC)c1` [FLAVOKAWAIN C] came in with a 50% inhibitory concentration (IC50) at 48 h in data set [1] of 9.8 µg/mL (≈ 32.6 µM). Besides, in data set [2], inhibition was half-maximal at 8.1 µg/mL (≈ 27 µM) (IC50).
`COC1=CC(=O)O[C@@H](/C=C/c2ccc3c(c2)OCO3)C1` [METHYSTICIN]: the Activity entry in [3], in [5] and in data set [9] was “Non-toxic” throughout. The inhibition result in [4], in [6], in data set [7] and in data set [8] was “Active” throughout. In addition, in data set [1], the IC50 at 48 h is 392 µg/mL (≈ 1430 µM). The IC50 in [2] came to 0.19 µg/mL (≈ 0.693 µM).
In data set [1], `COc1cc(/C=C/c2ccccc2)oc(=O)c1` [DESMETHOXYYANGONIN] had an IC50 at 48 h of 173 µg/mL (≈ 758 µM). In data set [2], this molecule had an IC50 of 33 µg/mL (≈ 145 µM).
As for `COc1ccc(/C=C/C(=O)c2c(O)cc(OC)cc2OC)cc1` [FLAVOKAWAIN A], the IC50 at 48 h in data set [1] amounted to 13.8 µg/mL (≈ 43.9 µM). Further, inhibition in [2] was half-maximal at 11.6 µg/mL (≈ 36.9 µM) (IC50).
In data set [1], `COC1=CC(=O)O[C@@H](CCc2ccccc2)C1` [DIHYDROKAWAIN] came in with a 50% inhibitory concentration (IC50) at 48 h of 175 µg/mL (≈ 753 µM). In data set [2], half-maximal inhibition (IC50) required 60 µg/mL (≈ 258 µM).
In [1], `COc1cc(O)c(C(=O)/C=C/c2ccccc2)c(OC)c1` [FLAVOKAWAIN B] displayed a concentration for half-maximal inhibition (IC50) at 48 h of 6.6 µg/mL (≈ 23.2 µM). This molecule registered an IC50 in data set [2] of 8 µg/mL (≈ 28.1 µM).
